Measured values reported in patent publication US20260116920A1, “HUMAN TRANSFERRIN RECEPTOR BINDING PEPTIDE” (PEPTIDREAM INC., priority 2021, published 2026).
Starred links: 1 amine or outer side, 2 acyl side, 3 side chain; linkers in the order of their positions; H or OH if unused. Positions of bridges follow the written chain, without caps; N, C: chain ends. Non-standard residues stand in square brackets, D forms with d. Residues, ends and D or L forms follow the SMILES beside them. Groups on a side chain read outwards from the residue. *: point of attachment. Meglumine = CN(C[C@H](O)[C@@H](O)[C@H](O)[C@H](O)CO)*; NMePhe(3-Cl) = CN[C@@H](Cc1cccc(Cl)c1)C(=O)O; 3Pal(6-NH2) = Nc1ccc(C[C@H](N)C(=O)O)cn1; Lys(N3) = [N-]=[N+]=NCCCC[C@H](N)C(=O)O; NMe3Pal = CN[C@@H](Cc1cccnc1)C(=O)O; NMe4Pal = CN[C@@H](Cc1ccncc1)C(=O)O; NMeY = CN[C@@H](Cc1ccc(O)cc1)C(=O)O; 3Pal = N[C@@H](Cc1cccnc1)C(=O)O; 4Pal = N[C@@H](Cc1ccncc1)C(=O)O; PEG4 = NCCOCCOCCOCCOCCC(=O)O; CO = O=C([*:1])[*:2]

Target: T1, human transferrin receptor (hTfR) (Homo sapiens, UniProt P02786)
T1 construct: made in house
T1 sequence (P02786 89-760 limits assumed): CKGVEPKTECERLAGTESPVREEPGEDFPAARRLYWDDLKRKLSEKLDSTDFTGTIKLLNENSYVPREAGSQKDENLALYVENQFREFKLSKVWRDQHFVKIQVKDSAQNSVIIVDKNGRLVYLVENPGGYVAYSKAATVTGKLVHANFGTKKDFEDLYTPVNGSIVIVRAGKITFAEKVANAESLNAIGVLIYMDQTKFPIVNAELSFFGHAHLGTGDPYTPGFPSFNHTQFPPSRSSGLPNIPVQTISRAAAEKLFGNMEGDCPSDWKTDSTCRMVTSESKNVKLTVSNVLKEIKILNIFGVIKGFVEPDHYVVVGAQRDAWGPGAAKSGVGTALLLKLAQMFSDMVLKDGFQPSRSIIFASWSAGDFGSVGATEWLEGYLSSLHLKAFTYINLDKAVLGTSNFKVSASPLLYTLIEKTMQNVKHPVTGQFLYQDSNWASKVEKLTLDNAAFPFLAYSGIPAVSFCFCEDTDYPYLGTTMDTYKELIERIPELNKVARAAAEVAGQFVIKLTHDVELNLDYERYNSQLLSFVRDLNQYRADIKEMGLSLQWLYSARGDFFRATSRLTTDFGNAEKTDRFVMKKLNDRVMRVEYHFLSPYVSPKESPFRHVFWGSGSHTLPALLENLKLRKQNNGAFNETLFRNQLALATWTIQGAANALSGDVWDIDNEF
Experiment: Evaluation of molecular interaction between transferrin receptor (hTfR) and peptide using surface plasmon resonance (SPR)
Format: binding
Details: surface plasmon resonance, binding to hTfR; KD class symbol; read-out: SPR (KD value)
Outline: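 KD values are derived by least-squares fitting of single-cycle kinetic sensorgrams. Peptide series (5–100 nM) flows over recombinant hTfR dimer immobilized on a Ni-NTA chip by EDC/NHS coupling, in pH 8.0 HEPES buffer containing 0.1% BSA and 1.0% DMSO.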

| Kd [nM] | Structure (SMILES) |
| --- | --- |
| 1 to 100 | CC[C@H](C)[C@@H]1NC(=O)[C@H](Cc2ccc(OC)cc2)NC(=O)[C@H](Cc2ccc(O)cc2)NC(=O)[C@H](CC(N)=O)NC(=O)[C@H](Cc2c[nH]c3ccccc23)NC(=O)[C@H](C(C)C)NC(=O)[C@H](Cc2cccnc2)N(C)C(=O)[C@H](C(C)C)NC(=O)[C@H](C)NC(=O)CSC[C@@H](C(=O)NCCOCCOCCOCCOCCC(N)=O)NC(=O)[C@H](Cc2ccc(O)cc2)N(C)C(=O)[C@H](Cc2ccccc2)NC(=O)[C@H](CCCNC(=N)N)NC(=O)[C@H](CCCNC(=N)N)NC(=O)[C@H]([C@@H](C)CC)NC1=O [compound 55] |
| 1 to 100 | CC[C@H](C)[C@@H]1NC(=O)[C@H](Cc2ccc(OC)cc2)NC(=O)[C@H](Cc2ccc(O)cc2)NC(=O)[C@H](CC(N)=O)NC(=O)[C@H](Cc2c[nH]c3ccccc23)NC(=O)[C@H](C(C)C)NC(=O)[C@H](Cc2ccncc2)N(C)C(=O)[C@H](C(C)C)NC(=O)[C@H](C)NC(=O)CSC[C@@H](C(=O)NCCOCCOCCOCCOCCC(N)=O)NC(=O)[C@H](Cc2ccc(O)cc2)N(C)C(=O)[C@H](Cc2ccccc2)NC(=O)[C@H](CCCNC(=N)N)NC(=O)[C@H](CCCNC(=N)N)NC(=O)[C@H]([C@@H](C)CC)NC1=O [compound 56] |
| 1 to 100 | CC[C@H](C)[C@@H]1NC(=O)[C@H](Cc2ccc(OC)cc2)NC(=O)[C@H](Cc2ccc(N)nc2)NC(=O)[C@H](CC(N)=O)NC(=O)[C@H](Cc2c[nH]c3ccccc23)NC(=O)[C@H](C(C)C)NC(=O)[C@H](Cc2cccc(Cl)c2)N(C)C(=O)[C@H](C(C)C)NC(=O)[C@H](C)NC(=O)CSC[C@@H](C(=O)NCCOCCOCCOCCOCCC(N)=O)NC(=O)[C@H](Cc2ccc(O)cc2)N(C)C(=O)[C@H](Cc2ccccc2)NC(=O)[C@H](CCCNC(=N)N)NC(=O)[C@H](CCCNC(=N)N)NC(=O)[C@H]([C@@H](C)CC)NC1=O [compound 57] ({CH2CO}-AV[NMePhe(3-Cl)]VWN[3Pal(6-NH2)]Y(Me)IIRRF[NMeY]C[PEG4]-NH2; thioether N-15) |
| 1 to 100 | CC[C@H](C)[C@@H]1NC(=O)[C@H](Cc2ccc(OC)cc2)NC(=O)[C@H](Cc2ccc(O)cc2)NC(=O)[C@H](CC(N)=O)NC(=O)[C@H](Cc2c[nH]c3ccccc23)NC(=O)[C@H](C(C)C)NC(=O)[C@H](Cc2cccnc2)N(C)C(=O)[C@H](C(C)C)NC(=O)[C@H](C)NC(=O)CSC[C@@H](C(=O)NCCOCCOCCOCCOCCC(N)=O)NC(=O)[C@H](Cc2ccc(O)cc2)N(C)C(=O)[C@H](Cc2ccncc2)NC(=O)[C@H](CCCNC(=N)N)NC(=O)[C@H](CCCNC(=N)N)NC(=O)[C@H]([C@@H](C)CC)NC1=O [compound 58] ({CH2CO}-AV[NMe3Pal]VWNYY(Me)IIRR[4Pal][NMeY]C[PEG4]-NH2; thioether N-15) |
| < 1 | CC[C@H](C)[C@@H]1NC(=O)[C@H](Cc2ccc(OC)cc2)NC(=O)[C@H](Cc2ccc(O)cc2)NC(=O)[C@H](CC(N)=O)NC(=O)[C@H](Cc2c[nH]c3ccccc23)NC(=O)[C@H](C(C)C)NC(=O)[C@H](Cc2cccc(Cl)c2)N(C)C(=O)[C@H](C(C)C)NC(=O)[C@H](C)NC(=O)CSC[C@@H](C(=O)NCCOCCOCCOCCOCCC(N)=O)NC(=O)[C@H](Cc2ccc(O)cc2)N(C)C(=O)[C@H](Cc2ccncc2)NC(=O)[C@H](CCCNC(=N)N)NC(=O)[C@H](CCCNC(=N)N)NC(=O)[C@H]([C@@H](C)CC)NC1=O [compound 59] |
| 1 to 100 | CC[C@H](C)[C@@H]1NC(=O)[C@H](Cc2cccnc2)NC(=O)[C@H](Cc2ccc(O)cc2)NC(=O)[C@H](CC(N)=O)NC(=O)[C@H](Cc2c[nH]c3ccccc23)NC(=O)[C@H](C(C)C)NC(=O)[C@H](Cc2cccc(Cl)c2)N(C)C(=O)[C@H](C(C)C)NC(=O)[C@H](C)NC(=O)CSC[C@@H](C(=O)NCCOCCOCCOCCOCCC(N)=O)NC(=O)[C@H](Cc2ccc(O)cc2)N(C)C(=O)[C@H](Cc2ccccc2)NC(=O)[C@H](CCCNC(=N)N)NC(=O)[C@H](CCCNC(=N)N)NC(=O)[C@H]([C@@H](C)CC)NC1=O [compound 60] ({CH2CO}-AV[NMePhe(3-Cl)]VWNY[3Pal]IIRRF[NMeY]C[PEG4]-NH2; thioether N-15) |
| 1 to 100 | CC[C@H](C)[C@@H]1NC(=O)[C@H](Cc2ccncc2)NC(=O)[C@H](Cc2ccc(O)cc2)NC(=O)[C@H](CC(N)=O)NC(=O)[C@H](Cc2c[nH]c3ccccc23)NC(=O)[C@H](C(C)C)NC(=O)[C@H](Cc2cccc(Cl)c2)N(C)C(=O)[C@H](C(C)C)NC(=O)[C@H](C)NC(=O)CSC[C@@H](C(=O)NCCOCCOCCOCCOCCC(N)=O)NC(=O)[C@H](Cc2ccc(O)cc2)N(C)C(=O)[C@H](Cc2ccccc2)NC(=O)[C@H](CCCNC(=N)N)NC(=O)[C@H](CCCNC(=N)N)NC(=O)[C@H]([C@@H](C)CC)NC1=O [compound 61] ({CH2CO}-AV[NMePhe(3-Cl)]VWNY[4Pal]IIRRF[NMeY]C[PEG4]-NH2; thioether N-15) |
| 1 to 100 | CC[C@H](C)[C@@H]1NC(=O)[C@H](Cc2ccncc2)NC(=O)[C@H](Cc2ccc(N)nc2)NC(=O)[C@H](CC(N)=O)NC(=O)[C@H](Cc2c[nH]c3ccccc23)NC(=O)[C@H](C(C)C)NC(=O)[C@H](Cc2cccc(Cl)c2)N(C)C(=O)[C@H](C(C)C)NC(=O)[C@H](C)NC(=O)CSC[C@@H](C(=O)NCCOCCOCCOCCOCCC(N)=O)NC(=O)[C@H](Cc2ccc(O)cc2)N(C)C(=O)[C@H](Cc2ccncc2)NC(=O)[C@H](CCCNC(=N)N)NC(=O)[C@H](CCCNC(=N)N)NC(=O)[C@H]([C@@H](C)CC)NC1=O [compound 62] ({CH2CO}-AV[NMePhe(3-Cl)]VWN[3Pal(6-NH2)][4Pal]IIRR[4Pal][NMeY]C[PEG4]-NH2; thioether N-15) |
| 1 to 100 | CC[C@H](C)[C@@H]1NC(=O)[C@H](Cc2ccc(OC)cc2)NC(=O)[C@H](Cc2ccc(N)nc2)NC(=O)[C@H](CC(N)=O)NC(=O)[C@H](Cc2c[nH]c3ccccc23)NC(=O)[C@H](C(C)C)NC(=O)[C@H](Cc2cccnc2)N(C)C(=O)[C@H](C(C)C)NC(=O)[C@H](C)NC(=O)CSC[C@@H](C(=O)NCCOCCOCCOCCOCCC(N)=O)NC(=O)[C@H](Cc2ccc(O)cc2)N(C)C(=O)[C@H](Cc2ccccc2)NC(=O)[C@H](CCCNC(=N)N)NC(=O)[C@H](CCCNC(=N)N)NC(=O)[C@H]([C@@H](C)CC)NC1=O [compound 63] ({CH2CO}-AV[NMe3Pal]VWN[3Pal(6-NH2)]Y(Me)IIRRF[NMeY]C[PEG4]-NH2; thioether N-15) |
| 1 to 100 | CC[C@H](C)[C@@H]1NC(=O)[C@H](Cc2ccc(OC)cc2)NC(=O)[C@H](Cc2ccc(N)nc2)NC(=O)[C@H](CC(N)=O)NC(=O)[C@H](Cc2c[nH]c3ccccc23)NC(=O)[C@H](C(C)C)NC(=O)[C@H](Cc2ccncc2)N(C)C(=O)[C@H](C(C)C)NC(=O)[C@H](C)NC(=O)CSC[C@@H](C(=O)NCCOCCOCCOCCOCCC(N)=O)NC(=O)[C@H](Cc2ccc(O)cc2)N(C)C(=O)[C@H](Cc2ccccc2)NC(=O)[C@H](CCCNC(=N)N)NC(=O)[C@H](CCCNC(=N)N)NC(=O)[C@H]([C@@H](C)CC)NC1=O [compound 64] ({CH2CO}-AV[NMe4Pal]VWN[3Pal(6-NH2)]Y(Me)IIRRF[NMeY]C[PEG4]-NH2; thioether N-15) |
| 1 to 100 | CC[C@H](C)[C@@H]1NC(=O)[C@H](Cc2ccc(OC)cc2)NC(=O)[C@H](Cc2ccc(O)cc2)NC(=O)[C@H](CC(N)=O)NC(=O)[C@H](Cc2c[nH]c3ncccc23)NC(=O)[C@H](C(C)C)NC(=O)[C@H](Cc2cccc(Cl)c2)N(C)C(=O)[C@H](C(C)C)NC(=O)[C@H](C)NC(=O)CSC[C@@H](C(=O)NCCOCCOCCOCCOCCC(N)=O)NC(=O)[C@H](Cc2ccc(O)cc2)N(C)C(=O)[C@H](Cc2ccncc2)NC(=O)[C@H](CCCNC(=N)N)NC(=O)[C@H](CCCNC(=N)N)NC(=O)[C@H]([C@@H](C)CC)NC1=O [compound 65] |
| 1 to 100 | CC[C@H](C)[C@@H]1NC(=O)[C@H](Cc2ccc(OC)cc2)NC(=O)[C@H](Cc2ccc(O)cc2)NC(=O)[C@H](CC(N)=O)NC(=O)[C@H](Cc2c[nH]c3ccccc23)NC(=O)[C@H](C(C)C)NC(=O)[C@H](Cc2cccc(Cl)c2)N(C)C(=O)[C@H](C(C)C)NC(=O)[C@H](C)NC(=O)CSC[C@@H](C(=O)NCCOCCOCCOCCOCCC(N)=O)NC(=O)[C@H](Cc2cccnc2)N(C)C(=O)[C@H](Cc2ccncc2)NC(=O)[C@H](CCCNC(=N)N)NC(=O)[C@H](CCCNC(=N)N)NC(=O)[C@H]([C@@H](C)CC)NC1=O [compound 66] |
| 1 to 100 | CC[C@H](C)[C@@H]1NC(=O)[C@H](Cc2cccnc2)NC(=O)[C@H](Cc2ccc(O)cc2)NC(=O)[C@H](CC(N)=O)NC(=O)[C@H](Cc2c[nH]c3ccccc23)NC(=O)[C@H](C(C)C)NC(=O)[C@H](Cc2cccc(Cl)c2)N(C)C(=O)[C@H](C(C)C)NC(=O)[C@H](C)NC(=O)CSC[C@@H](C(=O)NCCOCCOCCOCCOCCC(N)=O)NC(=O)[C@H](Cc2ccc(O)cc2)N(C)C(=O)[C@H](Cc2ccncc2)NC(=O)[C@H](CCC(N)=O)NC(=O)[C@H](CCC(N)=O)NC(=O)[C@H]([C@@H](C)CC)NC1=O [compound 67] ({CH2CO}-AV[NMePhe(3-Cl)]VWNY[3Pal]IIQQ[4Pal][NMeY]C[PEG4]-NH2; thioether N-15) |
| 1 to 100 | CC[C@H](C)[C@@H]1NC(=O)[C@H](Cc2cccnc2)NC(=O)[C@H](Cc2ccc(O)cc2)NC(=O)[C@H](CC(N)=O)NC(=O)[C@H](Cc2c[nH]c3ccccc23)NC(=O)[C@H](C(C)C)NC(=O)[C@H](Cc2cccc(Cl)c2)N(C)C(=O)[C@H](C(C)C)NC(=O)[C@H](C)NC(=O)CSC[C@@H](C(=O)NCC(=O)N[C@H](CCCCNC(=O)N(C)C[C@H](O)[C@@H](O)[C@H](O)[C@H](O)CO)C(=O)N[C@H](CCCCNC(=O)N(C)C[C@H](O)[C@@H](O)[C@H](O)[C@H](O)CO)C(=O)N[C@H](CCCCNC(=O)N(C)C[C@H](O)[C@@H](O)[C@H](O)[C@H](O)CO)C(=O)N[C@H](CO)C(=O)N[C@H](CO)C(=O)N[C@@H](CCCCN=[N+]=[N-])C(N)=O)NC(=O)[C@H](Cc2ccc(O)cc2)N(C)C(=O)[C@H](Cc2ccncc2)NC(=O)[C@H](CCCNC(=N)N)NC(=O)[C@H](CCCNC(=N)N)NC(=O)[C@H]([C@@H](C)CC)NC1=O [compound 68] ({CH2CO}-AV[NMePhe(3-Cl)]VWNY[3Pal]IIRR[4Pal][NMeY]CG[dK]([CO-Meglumine])[dK]([CO-Meglumine])[dK]([CO-Meglumine])[dS][dS][Lys(N3)]-NH2; thioether N-15) |
